From publication PMC13126677 (Journal of Medicinal Chemistry, 2026)
≈ marks a conversion by molar mass, not a printed value. Where two headings read alike, the source gives them in different places.

How the values were obtained:
[1] = in vitro; conditions: human, microsomes
Protocol: (§1) The DMPK properties data described in the manuscript were measured via a high-throughput platform by AstraZeneca (United Kingdom).

[2] = test system: E. romani P–I, P–II and P–III SVMPs; conditions: gel; for protection against degradation of fibrinogen: P–I, P–II, P–III SVMPs, drug 10 μM (P–I, P–II), 400 nM (P–III)
Protocol: (§2) Evaluation of SVMP toxin activity of human prothrombin and fibrinogen and inhibition by test compounds was performed by SDS-PAGE degradation gel electrophoresis using venom-purified toxins. P–I, P–II and P–III SVMPs were isolated using an adaptation of the method of Howes et al. Whole E. romani venom (15 mg) was initially separated using size exclusion chromatography (SEC) on a 120 mL column of Superdex 75 (Cytiva). The P–II SVMP (22 kDa) was pure and ready to use at this stage. P–I and P–III SVMP containing peaks were separately applied to a 1 mL high resolution hydrophobic interaction chromatography (HIC) column (SOURCE 15PHE, Cytiva). […] The P–I eluted as two peaks of proteins with identical molecular weight (21 kDa) which were combined back together. The P–III-containing fraction from SEC eluted from HIC as multiple peaks of P–III SVMP isoforms, well separated from the earlier eluting L-amino acid oxidase and high molecular weight C-type lectin-like proteins. The proteins in the PIII-containing peaks were pooled back together.
Degradation of human fibrinogen was measured in a similar manner. Human fibrinogen (Merck) was added at 5 μg/reaction and incubated with the different SVMP isoforms in the presence or absence of drugs. Drug concentrations used were 10 μM for P–I and P–II SVMP and 400 nM for P–III SVMP. The reactions consisted of 200 ng SVMP isoform and the appropriate concentration of drug, which were then incubated for 30 min at 37 °C in a water bath. Five micrograms of fibrinogen were then added and the samples incubated for another hour at 37 °C, before separation by SDS-PAGE as described above.

[3] = test system: mouse fibrinogen and prothrombin; conditions: in words
Protocol: Mouse plasma samples were diluted 1:50 (antifibrinogen blots) and 1:30 (antiprothrombin blots) and 5 μL was run on 4–20% SDS-PAGE gels (BioRad) at 180 V for 1 h. The separated proteins were then transferred onto nitrocellulose membranes using semidry transfer on a Trans-Blot Turbo (BioRad) using the following conditions: 1.3 A, 25 V, 7 min. Blots were then stained for 5 min with Revert 700 Total Protein Stain (LICORbio) following the manufacturer’s protocol and imaged on the 700 nm channel on an Odyssey Fc Imaging System to detect protein abundance and ensure equal loading. Membranes were then destained in 0.1 M NaOH, 30% methanol for no longer than 10 min, then blocked in 5% milk TBST for 1 h. The primary antibodies: antifibrinogen (ab34269, rabbit polyclonal, Abcam) and antiprothrombin (PA5-77976, rabbit polyclonal, Thermo Fisher) were diluted 1:1,500 and 1:1,000, respectively, in 5% milk TBST. The membranes were incubated with the appropriate primary antibody for 1.5 h at room temperature, followed by three 5 min washes in TBST. Blots were then incubated for 1 h at room temperature with an IRDye 800CW donkey anti-rabbit IgG secondary antibody (1:15000, LICORbio), followed by three 5 min washes in TBS. The blots were imaged on an Odyssey Fc Imaging System at both 700 and 800 nm.

[4] = mouse
Protocol: (§3) The in vivo PK study was performed by ChemPartner (Shanghai, China). […] Mice had access to food and water throughout the pre- and postdose sampling period. […] Approximately 110 μL whole blood/time point (sampling at 0.083, 0.25, 0.5, 1, 2, 4, 8, and 24 h) was collected via serial bleeding in K2EDTA tube via facial vein. The blood sample was kept on ice and centrifuged (2,000 × g, 4 °C, 5 min) within 15 min postsampling. The plasma drug concentrations were determined by LC-MS/MS (ESI, Triple Quad 5500 System) on positive ion mode and using dexamethasone as internal standard. Liquid chromatography (LC) was performed using a 2.5 μm Xbridge BEH-C18 column (2.1 mm × 50 mm) at 60 °C with a rate of 0.6 mL/min. The following mobile phases were used; A: Water (+0.025% Formic acid and 1.0 mM ammonium acetate), B: Methanol (+0.025% Formic acid and 1.0 mM ammonium acetate).

[5] = test system: human plasma protein
Protocol: as §1

[6] = in vitro; conditions: rat, hepatocytes
Protocol: as §1

[7] = test system: thrombin-antithrombin (TAT) complexes
Protocol: Blood samples were collected from mice via cardiac puncture immediately following euthanasia. Samples were centrifuged at 1400 × g for 10 min at 4 °C, and the plasma supernatant stored at −80 °C until use. Plasma TAT levels were determined using a sandwich ELISA provided as a commercial kit (Abcam, ab137994). Mouse plasma samples were diluted 1:150 using Diluent M and were run in duplicate alongside a standard curve. Each well received 50 μL diluted plasma and was incubated for 2 h at room temperature to allow for the reaction with the TAT complexes antibodies coated onto the plate. After five washes, 50 μL of biotinylated mouse TAT complexes antibodies were added to the plate and the reaction allowed to proceed for another 2 h. Following another five washes, 50 μL of a streptavidin-peroxidase conjugate were added to the plate and incubated for another 30 min. Next, 50 μL of a chromogenic substrate (3,3′,5,5′-tetramethylbenzidine) was added to the plate and the peroxidase-dependent reaction allowed to proceed until a clear blue color formed in the well. At this point 50 μL of stop solution was added and the absorbance read immediately at 450 and 570 nm. The 570 nm absorbance readings were subtracted from the 450 nm ones, and the levels of TAT complexes (ng/mL) extrapolated based on the standard curve.

[8] = physchem; conditions: organic solvent / aqueous solvent at pH 7.4, pH 7.4
Protocol: as §1

[9] = test system: E. romani venom in human whole blood; conditions: venom 60 ng plus drug 5 μM
Protocol: We measured the coagulation profile of whole human blood using thromboelastography, and compared with venom stimulated, and venom and drug stimulated, clotting profiles. […] Blood samples were collected in ACD-A blood tubes. Using a ROTEM delta (Werfen) a final volume of 300 μL blood per reaction was pipetted into prewarmed cups (37 °C), with four channels per run. Whole blood was warmed for 5 min at 37 °C, during which time 12 μL of E. romani venom (5 ng/nL concentration, 60 ng dose), 15 μL of DMSO vehicle or test compounds (5 μM final concentration, 0.2% DMSO), and 20 μL of Startem reagent (CaCl2, Werfen) was prepared. The maximum incubation time of venom and inhibitors was 2 min, before 253 μL of whole blood were added and mixed before reading on the ROTEM delta. The commonly used parameters of clotting time and maximum clot firmness (MCF) were reported, from a minimum of three independent measurements per experimental group.

[10] = test system: E. romani venom
Protocol: Room conditions were set at 20–24 °C and 45–65% humidity, 12/12 h light cycles. Mice were allowed ad libitum access to Picolab 5R53 food (Lab Diet, USA) and reverse osmosis water and housed with nesting material and environmental enrichment materials.
Mice weighed 22–28 g at the start of study. Five milligram or kilogram morphine was administered subcutaneously as an analgesic 15 min prior to venom administration. […] No criteria for including or excluding animals was applied, and all data points were included in analyses. Animals were monitored for humane end points (loss of righting reflex, seizure, external hemorrhage) for 8 h to encompass the drug exposure time frame, and any animals showing such signs were immediately euthanized by rising concentrations of carbon dioxide. All observations were performed by mixed gender experimenters who were blinded to the drug group allocation. Time of death, number of deaths and number of survivors were recorded, where deaths and times of death represent implementation of humane end point-dictated euthanasia. Kaplan–Meier survival plots were generated using GraphPad Prism 9.0 (GraphPad Software, San Diego, USA).

[11] = test system: procoagulant activity of E. romani venom; conditions: read-out: Coagulation assay EC50 E. romani; 10 ng E. romani venom, citrated bovine plasma; mean of n ≥ 3, range in brackets
Protocol: (§4) This assay consists of preincubating venom (or venom vehicle control) at a species-specific dose with the compound of interest (or compound vehicle control), then adding citrated bovine plasma to the wells and activating the clotting cascade with calcium chloride. […] Compounds of interest were stamped onto 384-well plates at a volume of 0.5 μL and a concentration of 10 mM in 100% DMSO. Positive and negative control wells were stamped with 0.5 μL of 100% DMSO. To the test wells and the venom-only positive control wells, 10 μL of venom diluted to 1 μg/mL (E. romani) or 10 μg/mL (B. jararaca) in PBS was added, giving a final well amount of 10 ng (E. romani) or 100 ng (B. jararaca) per well. In the no venom negative control wells, 10 μL of PBS was added. The plates were then sealed, span briefly in a Platefuge and incubated at 37 °C for 25 min to allow venom-inhibitor interaction. While the plates were incubating, sufficient citrated bovine plasma (S0260, BioWest) to allow 20 μL/well was centrifuged at 3120 RCF for 5 min to remove any residual cellular debris and the supernatant was collected. The 384-well plates were removed from the incubator for 5 min to allow acclimation to room temperature, then 20 μL/well of 20 mM CaCl2 was added and immediately followed by the addition of 20 μL/well of centrifuged citrated bovine plasma, both via a Multidrop Combi reagent dispenser (5840330, Thermo Fisher Scientific). The plates were then read kinetically using an absorbance protocol on a CLARIOStar microplate reader at 595 nm for 60 min. […] Dose response plates were conducted identically and the % inhibition values at each dose were used to draw EC50 curves to estimate the EC50 value of each compound tested. All coagulation experiments were repeated independently a minimum of three times.

[12] = test system: SVMP activity of five viper venoms (E. romani, C. atrox, C. rhodostoma, B. jararaca, B. arietans); conditions: read-out: broad-spectrum inhibition of SVMP activity EC50s; range over the five venoms
Protocol: (§5) Throughout our medicinal chemistry campaign, compounds were evaluated for their ability to inhibit enzymatic SVMP toxin activity in vitro using a previously described fluorescent-based substrate cleavage assay against five medically important viper venoms, namely Echis romani (Roman’s carpet viper, West Africa), Crotalus atrox (Western diamondback rattlesnake, North America), Calloselasma rhodostoma (Malayan pit viper, South East Asia), Bothrops jararaca (jararaca, South America) and Bitis arietans (puff adder, Africa).
(§6) Compounds of interest were stamped onto 384-well plates at a volume of 0.91 μL at a concentration of 1 mM in 100% DMSO (D2650, Sigma-Aldrich). Positive and negative control wells were stamped with 0.91 μL of 100% DMSO. To the test wells and the venom-only positive control wells, 15 μL of venom diluted to 0.066 μg/mL in PBS was added, giving a final amount of 1 μg/well. In the no venom negative control wells, 15 μL of PBS was added. The plates were then sealed, span briefly in a Platefuge (C2000, Benchmark Scientific) and incubated at 37 °C for 25 min to allow venom-inhibitor interaction. […] Dose response plates were conducted identically and the % inhibition values at each dose were used to draw EC50 curves to estimate the EC50 value of each compound tested. All SVMP experiments were repeated independently a minimum of three times.

[13] = test system: E. romani venom; conditions: venom 10 μg/egg, in words
Protocol: Fertile hens eggs were supplied on day 1 post fertilization from UK supplier MedEggs Ltd. Eggs were immediately placed horizontally to incubate at 37 °C until day 5 of development. Candling was conducted to mark the position of the embryo to guide windowing. Any infertile eggs were removed at this stage. To access the embryos, all fertile eggs were then windowed under laminar flow. In brief, 6–8 mL of albumin was removed using a 23G needle. The area marking the position of the embryo was then covered with medical tape, and a dish of shell removed using sharp dissection scissors. The exposed embryo was then covered using parafilm and the egg returned to the incubator overnight. Surviving embryos were then randomly allocated into groups of n = 5. […] Treatments were given in a total volume of 10 μL, administered directly onto (i.e., topically) the vitelline vein. Embryos were returned to the incubator immediately following dosing, and then observed at 1, 2, 4, and 6 h. Survival was monitored via the observation of a heartbeat. Venom pathology was captured using a Motic SMZ 171-TLED microscope system. In brief, at each observation time point (1, 2, 4, and 6 h post envenoming) images were captured using a Moticam X5 Wi-Fi camera. To track changes across the experimental time course, the imaging position was kept consistent at each time point for individual embryos.

[14] = test system: SVMP activity of Bothrops jararaca venom; conditions: read-out: Inhibition of SVMP enzymatic activity EC50 BJA; B. jararaca venom; mean of n ≥ 3, range in brackets
Protocol: as §5, §6

[15] = test system: E. romani P–I and P–III SVMPs; conditions: drug 2 μM, gel
Protocol: as §2
Prothrombin degradation was measured by incubating 2 μg of human prothrombin (Hematologic Technologies INC) in the presence or absence of drug and the P–I, P–II, and P–III SVMPs. […] Briefly, drug or DMSO and 200 ng of purified SVMP isoform were incubated for 30 min at 37 °C in a water bath, after which 2 μg of human prothrombin were added and the samples incubated for another hour at 37 °C. Drug concentrations used were 2 μM for P–I and P–III SVMPs. Samples were then processed for loading onto a 4–20% SDS-PAGE gel (Biorad) and were run under reducing conditions for 45 min at 180 V. The gels were stained with Coomassie Brilliant Blue R250 and degradation profiles were visualized and images captured using a GelDoc (Biorad).

[16] = in vivo; conditions: male, CD1, mouse, plasma, po, 20 mg/kg
Protocol: as §3

[17] = physchem; conditions: aqueous medium at pH 7.4, pH 7.4, aqueous buffer
Protocol: as §1

[18] = test system: procoagulant activity of B. jararaca venom; conditions: read-out: Coagulation assay EC50 B. jararaca; 100 ng B. jararaca venom, citrated bovine plasma; mean of n ≥ 3, range in brackets
Protocol: as §4

[19] = test system: SVMP activity of Bitis arietans venom; conditions: read-out: Inhibition of SVMP enzymatic activity EC50 BAR; B. arietans venom; mean of n ≥ 3, range in brackets
Protocol: as §5, §6

[20] = test system: SVMP activity of Crotalus atrox venom; conditions: read-out: Inhibition of SVMP enzymatic activity EC50 CAT; C. atrox venom; mean of n ≥ 3, range in brackets
Protocol: as §5, §6

[21] = test system: SVMP activity of Echis romani venom; conditions: read-out: Inhibition of SVMP enzymatic activity EC50 ERO, E. romani venom, mean of n ≥ 3, range in brackets
Protocol: as §5, §6

[22] = test system: SVMP activity of Calloselasma rhodostoma venom; conditions: read-out: Inhibition of SVMP enzymatic activity EC50 CRH; C. rhodostoma venom; mean of n ≥ 3, range in brackets
Protocol: as §5, §6

[23] = test system: SVMP activity of Echis romani venom; conditions: read-out: ERO EC50; E. romani venom; ref not given; cited from earlier work
[24] = test system: E. romani venom; conditions: 30 mg/kg single oral dosing; ref not given; cited from earlier work
[25] = test system: procoagulant venom activity (E. romani and B. jararaca); conditions: in words; coagulation assay
Protocol: as §4

COc1ccc(S(=O)(=O)N2CCN(S(=O)(=O)C3CC3)C[C@@H]2C(=O)NO)cc1 [compound 23, (R)-4-(Cyclopropylsulfonyl)-N-hydroxy-1-((4-methoxyphenyl)sulfonyl)piperazine-2-carboxamide]
microsomal CLint [1]: 8.3 µL/min/mg
protection against degradation of fibrinogen [2]: protected against the degradation of fibrinogen
plasma prothrombin and fibrinogen profiles ([3]; single 20 mg/kg oral dose, surviving mice): intact prothrombin and fibrinogen profiles
plasma fibrinogen ([3]; two 20 mg/kg oral doses): fibrinogen was detectable in all multiply dosed animals
plasma prothrombin ([3]; two 20 mg/kg oral doses): Prothrombin was detectable in three of the four surviving mice
drug level at 4 h as share of C max ([4]; 20 mg/kg oral, 4 h after dosing): 8.4%
time for drug levels to reach their peak ([4]; oral dosing): 30 min
Human Protein binding (%free) [5]: 66 %free
hepatocyte CLint [6]: 13.3 µL/min/1e6 cells
TAT levels, mean ([7]; single 20 mg/kg oral dose, all mice): 18.6 ng/mL
TAT levels, mean ([7]; single 20 mg/kg oral dose, mice that died during the experiment): 29.6 ng/mL
TAT levels, mean ([7]; single 20 mg/kg oral dose, the two survivors): 2.1 ng/mL
TAT levels, mean ([7]; two 20 mg/kg oral doses): 13.7 ng/mL
logD [8]: 0.2
clotting time ([9]; mean): 8.6 min
maximum clot firmness (MCF) ([9]; mean): 60.3 [SD 0.6] mm
survival times vs venom-only ([10]; 90 μg venom i.p., single 20 mg/kg oral dose, p = 0.01, in words): significantly prolonged survival times
mean survival time ([10]; two dose oral regimen 20 mg/kg, 8 h experiment): 420 min
time at which the mouse succumbed ([10]; two dose oral regimen 20 mg/kg, one of five mice): 180 min
EC50 [11]: 135 nM
EC50 [12]: 4.7 to 38.6 nM
embryo survival ([13]; drug 1 μg/egg topical, 6 h): complete survival
EC50 [14]: 10.9 nM
protection against prothrombin degradation [15]: almost full protection
AUC(0-inf) [16]: 450 ng·h/mL
AUC(0-t) [16]: 444 ng·h/mL
Cmax [16]: 311 ng/mL
MRT inf [16]: 1.61 h
MRT last [16]: 1.49 h
Tmax [16]: 0.5 h
concentration at 4 h [16]: 26.1 ng/mL
half-life [16]: 1.41 h
solubility [17]: > 1000 µM
EC50 [18]: 13.4 nM
EC50 [19]: 3.9 nM
EC50 [20]: 22.9 nM
EC50 ([21]; listed as 23 (DC-174)): 4.7 nM
EC50 [22]: 38.6 nM

O=S(=O)(O)CC(S)CS (centres unmarked) [DMPS, 2,3-dimercapto-1-propanesulfonic acid]
EC50 [23]: 1650 nM
oral dosing murine survival at 8 h [24]: 40%

COCCOC(=O)N1CCN(S(=O)(=O)c2cc(F)c(Oc3ccc(Cl)cc3)c(F)c2)[C@@H](C(=O)NO)C1 [XL-784, reference compound]
microsomal CLint [1]: 100 µL/min/mg
protection against degradation of fibrinogen [2]: protected against the degradation of fibrinogen
protection against fibrinogen degradation by P–II SVMP ([2]; P–II SVMP, drug 10 μM): inferior against P–II SVMP activity
Human Protein binding (%free) [5]: 0.3 %free
hepatocyte CLint [6]: 67.3 µL/min/1e6 cells
logD [8]: 3.2
reduction of venom-induced MCF [9]: 28.9%
effect on clotting time ([9]; in words): no effect on clotting time
EC50 [11]: > 10000 nM
venom-induced hemorrhage in embryos ([13]; drug 1 μg/egg, 1 h postvenom images): no evidence of hemorrhage
EC50 [14]: 64.4 nM
protection against prothrombin degradation [15]: unable to protect against prothrombin degradation
solubility [17]: 316 µM (≈ 174 µg/mL)
EC50 [18]: > 10000 nM
inhibition of procoagulant venom activity [25]: inactive
EC50 [19]: 12.9 nM
EC50 [20]: 50.6 nM
EC50 [21]: 9.7 nM
EC50 [22]: 93.4 nM
